# Legend:
# OCI-LY10 = test: ABC-DLBCL MYD88-L265P xenograft tumor model, OCI-LY10 (dose response); type: in vivo
# ABC-DLBCL PDX tumors = ABC-DLBCL PDX tumors (MYD88 and CD79B double mutants); type: in vivo; details: activating mutations in TLR/IL-1R and BCR pathways (MYD88 and CD79B double mutants)
# OCI-LY3 = test: ABC-DLBCL MYD88-L265P xenograft tumor model, OCI-LY3; type: in vivo
# [1] = tested on: SU-DHL-2 cells (MYD88-S222R); test: In vivo tumor growth inhibition in ABC-DLBCL tumor model (SU-DHL-2 xenograft); details: SU-DHL-2 in female SCID Beige mice; 27 continuous days qd po; Compound A/CA-4948 100 mg/kg, venetoclax 75 mg/kg
# Experimental: Female SCID Beige mice were implanted with SU-DHL-2 cells which harbor MYD88-S222R pathway activating mutations. The mice were treated with Compound A (100 mg/kg, qd, po, suspension in 0.5% Tween 20 and 0.25% hydroxyethyl cellulose), venetoclax (75 mg/kg, qd, po, solution in 60% phosal 50PG, 30% PEG 400, and 10% ethanol) or the combination for 27 continuous days.
# All in life data acquisition, including body weight, tumor length, tumor diameter, tumor ulceration, clinical signs and animal mortality was collected in Study Director. Tumor ulceration was scored on a 6 level system with severity of 4 or higher requiring attention. At the end of the study (24 hours after the last dose), all surviving animals were examined externally for possible clinical abnormalities or adverse clinical signs, weighed and tumor measurements were taken for the last time.
# [2] = tested on: ABC-DLBCL cell line OCI-Ly10 (MYD88-L265P, CD79A ITAM); test: In vivo tumor growth inhibition in ABC-DLBCL tumor model (OCI-Ly10 xenograft); details: OCI-Ly10 in female SCID Beige mice; 21 continuous days qd po; Compound A 50 mg/kg, venetoclax 75 mg/kg
# Experimental: Female SCID Beige mice were implanted with the ABC-DLBCL cell line OCI-Ly10, which harbors TLR (MYD88-L265P) and BCR (CD79A ITAM) pathway activating mutations. The mice were treated with Compound A (50 mg/kg, qd, po, suspension in 0.5% Tween 20 and 0.25% hydroxyethyl cellulose), venetoclax (75 mg/kg, qd, po, solution in 60% phosal 50PG, 30% PEG 400, and 10% ethanol) or the combination for 21 continuous days.
# After the 21-day drug treatment period, the mice were given a 19-day dosing holiday. […] After the 19-day drug holiday, dosing of the respective drug treatments was reinstated to each cohort.
SMILES,efficacy in xenograft tumor model (OCI-LY10),efficacy in PDX tumors (ABC-DLBCL PDX tumors),efficacy in xenograft tumor model (OCI-LY3),TGI % (Day 28) [1],tumor growth inhibition (TGI) [2]
Cc1cc(-c2nc(C(=O)Nc3cc4oc(N5CCOCC5)nc4nc3N3CC[C@@H](O)C3)co2)ccn1 [Compound A],dose-dependent efficacy,efficacious,dose-dependent efficacy,66%,63%
"CC1(C)CCC(CN2CCN(c3ccc(C(=O)NS(=O)(=O)c4ccc(NCC5CCOCC5)c([N+](=O)[O-])c4)c(Oc4cnc5[nH]ccc5c4)c3)CC2)=C(c2ccc(Cl)cc2)C1 [venetoclax, reference compound]",–,–,–,–,71%

# From US10758518B2, “Compounds and compositions for treating hematological disorders” (Curis, Inc., priority 2017, dated 2020)
